Where two headings read alike, the source gives them in different places.
Key:
22RV1 cells = experiment: Cell proliferation assay (CellTiter Glo), 22RV1; format: cell-based; details: Homo sapiens, 22Rv1, 72 h, read-out: 22RV1 IC50
Human recombinant PARP1 = Human recombinant PARP1 (Homo sapiens, UniProt P09874); experiment: RBC HotSpot PARP1 radioisotope-based filter binding assay; format: biochemical; details: 2.5 nM enzyme, histone H4, 10 μM 32P-NAD+; read-out: PARP1 IC50
How it was run: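 Radiometric filter-binding assay: 2.5 nM recombinant enzyme with 20 μM histone (H4 for PARP1, H3 for PARP2) and activated DNA, pH 8.0, 1% DMSO. 20 min preincubation, then 10 μM ^32P-NAD^+ for 2 h at room temperature; filtered radioactivity gives IC50 fits.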

[1] = cell growth inhibition, three days of treatment

Sequence of Human recombinant PARP1 (P09874 whole entry): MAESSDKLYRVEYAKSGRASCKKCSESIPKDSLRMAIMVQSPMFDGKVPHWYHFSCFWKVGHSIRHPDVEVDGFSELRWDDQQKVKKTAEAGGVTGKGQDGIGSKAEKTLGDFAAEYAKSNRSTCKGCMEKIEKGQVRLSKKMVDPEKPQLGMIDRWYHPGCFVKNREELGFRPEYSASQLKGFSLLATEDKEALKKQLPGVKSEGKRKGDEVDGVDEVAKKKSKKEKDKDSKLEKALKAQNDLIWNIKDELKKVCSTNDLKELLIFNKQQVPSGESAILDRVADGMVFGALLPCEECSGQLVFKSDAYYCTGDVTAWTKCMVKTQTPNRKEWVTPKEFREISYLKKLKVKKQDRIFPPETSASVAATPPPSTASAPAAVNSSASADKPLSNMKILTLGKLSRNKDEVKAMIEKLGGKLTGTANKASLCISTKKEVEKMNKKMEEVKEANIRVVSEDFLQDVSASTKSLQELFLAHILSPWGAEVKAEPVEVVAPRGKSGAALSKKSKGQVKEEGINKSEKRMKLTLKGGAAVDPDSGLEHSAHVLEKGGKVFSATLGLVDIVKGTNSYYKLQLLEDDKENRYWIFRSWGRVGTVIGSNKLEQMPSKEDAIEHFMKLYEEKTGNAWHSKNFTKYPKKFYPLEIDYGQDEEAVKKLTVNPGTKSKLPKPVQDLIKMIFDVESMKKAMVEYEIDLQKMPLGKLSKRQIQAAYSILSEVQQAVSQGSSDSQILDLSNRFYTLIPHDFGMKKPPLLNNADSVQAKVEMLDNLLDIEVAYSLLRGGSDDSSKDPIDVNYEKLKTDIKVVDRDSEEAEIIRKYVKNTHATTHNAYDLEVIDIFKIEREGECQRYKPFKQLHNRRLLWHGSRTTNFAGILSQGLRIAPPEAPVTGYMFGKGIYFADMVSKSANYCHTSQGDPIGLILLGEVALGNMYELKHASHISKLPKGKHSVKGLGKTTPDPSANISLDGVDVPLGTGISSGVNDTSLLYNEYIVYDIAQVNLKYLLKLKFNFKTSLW

Structure (SMILES) | IC50 (22RV1 cells; [1]) | IC50 (Human recombinant PARP1) | IC50 (22RV1 cells)
C[C@]12CCC(=O)C[C@@H]1CC[C@@H]1[C@@H]2CC[C@@]2(C)[C@H]1CC[C@@]2(O)C#CCN1CCN(C(=O)c2cc(Cc3n[nH]c(=O)c4ccccc34)ccc2F)CC1 [Compound 1.118, 4-(4-fluoro-3-(4-(3-((5S,8R,9S,10S,13S,14S,17S)-17-hydroxy-10,13-dimethyl-3-oxohexadecahydro-1H-cyclopenta[a]phenanthren-17-yl)prop-2-ynyl)piperazine-1-carbonyl)benzyl)phthalazin-1(2H)-one] | 9700 nM | 13.6 nM | 
C[C@]12CCC(=O)C[C@@H]1CC[C@@H]1[C@@H]2CC[C@@]2(C)[C@H]1CC[C@@]2(O)CCCN1CCN(C(=O)c2cc(Cc3n[nH]c(=O)c4ccccc34)ccc2F)CC1 [Compound 1.119, 4-(4-fluoro-3-(4-(3-((5S,8R,9S,10S,13S,14S,17R)-17-hydroxy-10,13-dimethyl-3-oxohexadecahydro-1H-cyclopenta[a]phenanthren-17-yl)propyl)piperazine-1-carbonyl)benzyl)phthalazin-1(2H)-one] |  | 1.6 nM | 2900 nM
O=C(c1ccc(OCCN2CCN(C(=O)c3cc(Cc4n[nH]c(=O)c5ccccc45)ccc3F)CC2)cc1)c1c(-c2ccc(O)cc2)sc2cc(O)ccc12 [Compound 2.13, 4-(4-fluoro-3-(4-(2-(4-(6-hydroxy-2-(4-hydroxyphenyl)benzo[b]thiophene-3-carbonyl)phenoxy)ethyl)piperazine-1-carbonyl)benzyl)phthalazin-1(2H)-one] | 1690 nM | 3.3 nM | 
